Experimental data published in paper PMC4867592, “Targeting multiple response regulators of Mycobacterium tuberculosis augments the host immune response to infection” (Scientific Reports, 2016).
Where “and” joins values, the source holds several entries; their conditions need not be identical. Equal values may be shown once. Read-outs that look alike come from different tables or passages of the source.

Key:
MtrA = molecular target: T1, MtrA (Mycobacterium tuberculosis, UniProt P9WGM7); assay: EMSA: binding of phosphorylated MtrA to fbpB promoter DNA; parameters: species or system Mtb
T1 construct: Full length MtrA/Rv3246c excluding the stop codon; His (C); made in house; host or cells: E. coli C41(DE3)
T1 sequence (P9WGM7 1-228): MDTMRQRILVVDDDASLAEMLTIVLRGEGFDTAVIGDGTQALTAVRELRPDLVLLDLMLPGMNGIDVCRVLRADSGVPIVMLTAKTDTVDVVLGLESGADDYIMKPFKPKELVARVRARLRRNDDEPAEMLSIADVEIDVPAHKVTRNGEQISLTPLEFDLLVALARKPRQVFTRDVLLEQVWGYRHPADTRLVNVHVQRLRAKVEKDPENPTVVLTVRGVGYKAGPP

RegX3 = molecular target: T2, RegX3 (Mycobacterium tuberculosis, UniProt P9WGL9); assay: EMSA: binding of phosphorylated RegX3 to ppk1 promoter DNA; parameters: species or system Mtb
T2 construct: made in house; host or cells: E. coli
T2 sequence (P9WGL9 1-227): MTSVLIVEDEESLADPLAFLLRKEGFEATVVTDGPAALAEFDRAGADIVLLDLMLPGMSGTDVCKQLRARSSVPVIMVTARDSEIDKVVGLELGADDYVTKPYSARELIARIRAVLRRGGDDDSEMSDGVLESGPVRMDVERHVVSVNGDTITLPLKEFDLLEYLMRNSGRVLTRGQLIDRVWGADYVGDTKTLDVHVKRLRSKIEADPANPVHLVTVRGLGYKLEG

MprA = molecular target: T3, MprA (Mycobacterium tuberculosis, UniProt P9WGM9); assay: EMSA: binding of phosphorylated MprA to mprA promoter DNA; parameters: species or system Mtb
T3 construct: His (N); made in house; host or cells: E. coli BL21(DE3)
T3 sequence (P9WGM9 1-230): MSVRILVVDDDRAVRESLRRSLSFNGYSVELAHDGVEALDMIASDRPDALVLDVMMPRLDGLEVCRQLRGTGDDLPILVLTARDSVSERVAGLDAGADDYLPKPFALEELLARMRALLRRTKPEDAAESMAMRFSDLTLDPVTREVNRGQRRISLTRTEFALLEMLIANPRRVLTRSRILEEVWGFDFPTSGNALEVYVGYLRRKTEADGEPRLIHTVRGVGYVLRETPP

DosR = molecular target: T4, DosR (Mycobacterium tuberculosis, UniProt P9WMF9); assay: EMSA: binding of phosphorylated DosR (DevR) to hspX promoter-derived DNA; parameters: species or system Mtb
T4 construct: His6; made in house; host or cells: E. coli C43(DE3)
T4 sequence (P9WMF9 whole entry): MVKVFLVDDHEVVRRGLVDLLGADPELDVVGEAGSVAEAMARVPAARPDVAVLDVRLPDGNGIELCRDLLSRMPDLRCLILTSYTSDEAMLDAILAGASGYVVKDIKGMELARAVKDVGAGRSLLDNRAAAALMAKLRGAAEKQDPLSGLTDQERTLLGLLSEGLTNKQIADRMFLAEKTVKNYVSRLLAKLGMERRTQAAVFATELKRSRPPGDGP

Mtb [1] = assay: Alamar Blue assay of Mtb growth in vitro; assay type: cell-based, Mycobacterium tuberculosis H37Rv
Mtb in BMDM = assay: Mtb CFU in infected murine bone marrow derived macrophages; assay type: cell-based, Mycobacterium tuberculosis H37Rv; settings: MOI 5, 20 μM, after 6 days
Mtb in hMDM = assay: Mtb CFU in infected human monocyte derived macrophages; assay type: cell-based, Mycobacterium tuberculosis H37Rv; settings: MOI 5, 20 μM, after 6 days
[2] = system: NO release from macrophages; assay: NO (nitrite) release from macrophages, Griess reagent; assay type: cell-based
Description: For NO (nitrite) measurements, RAW264.7 was infected with Mtb in DMEM for 24–48 h. Nitrite was measured using Griess reagent (Invitrogen), according to the manufacturer’s instructions. Absorbance was read at 540 nm in an ELISA reader and the concentrations of nitrite were calculated against a standard curve.
(§1) RAW 264.7 cells or hMDMs or BMDMs were seeded at ~3x10^5 cells per well on 18 mm cover slips.
(§2) After infection and treatment with C2 or isoniazid (INH) , the cells were fixed with 4% paraformaldehyde for 10 min at 25°C followed by permeabilisation with 0.01% Triton X-100 in PBS for 10 min at 25°C. The cells were then treated with 10% BSA in PBS for 90 min at 25°C followed by treatment with anti-LC3 antibody at 4°C overnight. Cells were then washed with PBS and treated with Alexa488 conjugated secondary antibody for 90 min at 25°C. Cells were visualized in a Leica confocal […]
(§3) Bacterial CFU determinations
RAW264.7 cells or hMDMs or BMDMs were plated in 48 well plates. Cells were infected with Mtb and treated with C2 or C6 for the desired periods of time. […] CFUs were calculated in triplicate using standard procedures. […] Alamar Blue was added and readings were taken upon development of […]
For NO (nitrite) measurements, RAW264.7 or MDMs or BMDMs were infected with Mtb H37Rv. […] Supernatant nitrite concentrations were measured by reading absorbance at 540 nm and calculated using a standard curve. […]

Mtb-infected macrophages = assay: Autophagy assays in Mtb-infected macrophages (LC3-II immunoblot, LC3 puncta); assay type: cell-based; settings: for LC3 puncta formation in infected macrophages: BMDMs, hMDMs, RAW264.7, C2 20 μM, isoniazid 0.5 µg/ml
Description: For autophagy analysis, infected macrophages were lysed and immunoblotted with LC3 antibody. For the visualisation of LC3 puncta, infected macrophages were incubated with LC3 antibody followed by immunostaining with Alexa 488-conjugated secondary antibody. Images were acquired in a Leica confocal microscope. At least 100 cells were counted to enumerate the number of punctated cells. Detailed methods have been provided in the supplemental section.
as §1, §2, §3
RAW264.7 cells or hMDMs or BMDMs were plated in 48 well plates. Cells were infected with Mtb and treated with C2 or C6 for the desired periods of time. Infected cells were lysed in distilled water with 0.06% SDS. Serial dilutions of homogenates were plated on 7H11 agar plates supplemented with 10% OADC and incubated at 37 °C for 3–4 weeks. CFUs were calculated in triplicate using standard procedures. For Alamar Blue assays, bacteria from the cell lysates were washed and transferred to a 96 well plate in MB 7H9. Alamar Blue was added and readings were taken upon development of […]
For NO (nitrite) measurements, RAW264.7 or MDMs or BMDMs were infected with Mtb H37Rv. Control and infected supernatants obtained in the absence or presence of C2, were used for the measurement of nitrite using Griess reagent (Invitrogen), according to the manufacturer’s instructions. Supernatant nitrite concentrations were measured by reading absorbance at 540 nm and calculated using a standard curve. […]

Mtb [3] = assay type: cell-based, Mycobacterium tuberculosis H37Rv
Mtb [4] = assay: Growth curve of Mtb (absorbance at 600 nm); assay type: cell-based, Mycobacterium tuberculosis H37Rv
Mtb [5] = assay: qRT-PCR / semi-quantitative RT-PCR of Mtb gene expression; assay type: cell-based, Mycobacterium tuberculosis H37Rv
Mtb Erdman = assay type: cell-based, Mycobacterium tuberculosis Erdman; settings: immunoblot
RAW264.7 = assay: Survival of RAW264.7 measured by Alamar Blue

## 2-iminothiazolidine-4-one [Compound 2]
MtrA
  Inhibition of DNA binding activity of MtrA: could inhibit DNA binding activity of MtrA
MtrA; densitometry, read-out: IC50, inhibition of MtrA binding to fbpB promoter
  IC50: 21 µM
RegX3
  Inhibition of binding ability of RegX3: inhibited the binding ability of RegX3
RegX3; densitometry, read-out: IC50, inhibition of RegX3 binding to ppk1 promoter
  IC50: 18 µM
MprA
  Inhibition of binding ability of MprA: inhibited
MprA; densitometry, read-out: IC50, inhibition of MprA binding to mprA promoter
  IC50: 4 µM
DosR
  Inhibition of DosR binding to hspX promoter-derived DNA fragment: did not inhibit binding of DosR
Mtb [1]
  In vitro IC50 against Mtb: 6 µg/mL
  In vitro MIC against Mtb: 17 μg/ml and 25 μM
Mtb [1]; listed as C2
  In vitro IC50 against Mtb: ~ 6 μg/ml
Mtb [1]; read-out: In vitro IC50 against Mtb
  IC50: 9 µM
Mtb in BMDM
  Decrease in CFU of Mtb in BMDMs: ~ 8 fold
Mtb in hMDM
  Decrease in CFU of Mtb in MDMs: ~ 8 fold
[2]; Mtb-infected BMDMs, hMDMs, RAW264.7, 20 μM
  NO release from infected macrophages: significantly higher
[2]; compound alone, data not shown
  NO release from uninfected macrophages: did not affect NO release
Mtb-infected macrophages
  LC3 puncta formation in infected macrophages: enhanced
Mtb-infected macrophages; Mtb infected RAW 264.7, immunoblot
  Conversion of LC3-I to LC3-II: enhanced
Mtb [3]
  Retention of pBP10 by Mtb: higher levels of retention of pBP10
Mtb [4]
  Growth curve of Mtb: levelled off earlier
Mtb [5]; 20 µM
  Expression of activated targets sigB, sigE, Rv0081, ftsI, dnaN, pstS3: repressed
  Expression of repressible targets rpfB, gltA1, cydA: augmented
  esxA expression: lowered
Mtb [5]; 20 µM, 48 hours of treatment
  Expression of espA and espR: reduced
Mtb [5]; exposure for 48 h
  Expression of mtrA, regX3 and mprA: inhibited
Mtb Erdman
  ESAT-6 in the culture filtrate: reduced amounts of ESAT-6
RAW264.7
  Viability of RAW264.7: did not affect the viability

## NNC(=O)c1ccncc1 [INH, isoniazid, reference compound]
Mtb-infected macrophages
  LC3 puncta formation in infected macrophages: enhanced
